Experiments:
[1] = molecular target: Matrix metalloproteinase-14 (Homo sapiens, UniProt P50281); experiment: Inhibition of human recombinant MT1-MMP expressed in Escherichia coli by fluorogenic peptide cleavage assay
Matrilysin = molecular target: T1, Matrilysin (Homo sapiens, UniProt P09237); experiment: Inhibition of human recombinant MMP7 expressed in Escherichia coli by fluorogenic peptide cleavage assay
T1 sequence (P09237 whole entry): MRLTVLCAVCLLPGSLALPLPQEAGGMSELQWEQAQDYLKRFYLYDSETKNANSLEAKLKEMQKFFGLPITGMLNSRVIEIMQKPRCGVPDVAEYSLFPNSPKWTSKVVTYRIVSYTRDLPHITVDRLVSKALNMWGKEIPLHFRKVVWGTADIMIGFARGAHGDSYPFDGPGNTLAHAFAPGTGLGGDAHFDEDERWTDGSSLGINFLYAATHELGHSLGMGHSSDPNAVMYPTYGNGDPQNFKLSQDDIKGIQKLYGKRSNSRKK

[2] = molecular target: 72 kDa type IV collagenase (Homo sapiens, UniProt P08253); experiment: Inhibition of human recombinant MMP2 expressed in Escherichia coli by fluorogenic peptide cleavage assay
Chain of 72 kDa type IV collagenase (P08253 whole entry): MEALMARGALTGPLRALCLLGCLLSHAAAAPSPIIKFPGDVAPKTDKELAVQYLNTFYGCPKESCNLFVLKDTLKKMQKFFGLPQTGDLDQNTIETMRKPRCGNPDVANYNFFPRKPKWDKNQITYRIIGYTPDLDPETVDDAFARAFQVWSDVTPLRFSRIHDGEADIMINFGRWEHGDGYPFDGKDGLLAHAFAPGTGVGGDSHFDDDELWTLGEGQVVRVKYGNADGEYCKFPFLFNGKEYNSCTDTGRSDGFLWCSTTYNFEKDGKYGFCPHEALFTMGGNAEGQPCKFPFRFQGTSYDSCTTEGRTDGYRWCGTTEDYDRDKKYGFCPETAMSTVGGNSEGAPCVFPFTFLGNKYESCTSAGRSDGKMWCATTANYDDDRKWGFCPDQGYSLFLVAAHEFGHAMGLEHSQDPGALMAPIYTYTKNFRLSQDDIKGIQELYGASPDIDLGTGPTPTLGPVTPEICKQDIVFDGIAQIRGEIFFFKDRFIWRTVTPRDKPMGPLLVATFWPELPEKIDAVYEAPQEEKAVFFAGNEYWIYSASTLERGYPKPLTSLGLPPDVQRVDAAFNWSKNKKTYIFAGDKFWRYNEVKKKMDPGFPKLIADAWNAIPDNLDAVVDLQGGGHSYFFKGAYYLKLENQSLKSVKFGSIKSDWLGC

Compound	IC50 [1] [µM]	IC50 (Matrilysin) [µM]	IC50 [2] [µM]
COc1cc(C(=O)O[C@@H]2Cc3c(O)cc(O)cc3O[C@@H]2c2cc(O)c(O)c(O)c2)cc(O)c1O	1.7	20	8.7
COc1c(O)cc(C(=O)O[C@@H]2Cc3c(O)cc(O)cc3O[C@H]2c2cc(O)c(O)c(O)c2)cc1O	10.5	32	19
COc1c(O)cc(C(=O)O[C@@H]2Cc3c(O)cc(O)cc3O[C@@H]2c2cc(O)c(O)c(O)c2)cc1O	12.5	72	18.7
O=C(O[C@@H]1Cc2c(O)cc(O)cc2O[C@@H]1c1cc(O)c(O)c(O)c1)c1cc(O)c(O)c(O)c1 [EPIGALOCATECHIN GALLATE]	6.8	21.5	9.6
COc1cc(C(=O)O[C@@H]2Cc3c(O)cc(O)cc3O[C@H]2c2cc(O)c(O)c(O)c2)cc(O)c1O	3.1	20	5.4

More lines, now with the values ahead:

IC50 [1] [µM]	IC50 (Matrilysin) [µM]	IC50 [2] [µM]	Compound
> 100	> 100	22	COc1c(O)cc(C(=O)O[C@H]2Cc3c(O)cc(O)cc3O[C@@H]2c2ccc(O)c(O)c2)cc1O
52	> 100	28	COc1cc(C(=O)O[C@H]2Cc3c(O)cc(O)cc3O[C@@H]2c2ccc(O)c(O)c2)cc(O)c1O
15.6	> 100	88	COc1cc(C(=O)O[C@@H]2Cc3c(O)cc(O)cc3O[C@@H]2c2ccc(O)c(O)c2)cc(O)c1O
3.7	> 100	34	COc1c(O)cc(C(=O)O[C@@H]2Cc3c(O)cc(O)cc3O[C@@H]2c2ccc(O)c(O)c2)cc1O
